The source of these data is patent publication US20110281928A1, “Process for the preparation of zofenopril and its pharmaceutically acceptable salts thereof” (GLENMARK GENERICS LTD, priority 2009, published 2011).

Common to all, as to assay type: physicochemical
Data set [1] in a line: Specific surface area by B.E.T. nitrogen absorption. The source says:
Specific surface area is defined in units of square meters per gram (m^2/g). It is usually measured by nitrogen absorption analysis. In this analysis, nitrogen is absorbed on the surface of the substance. The amount of the absorbed nitrogen (as measured during the absorption or the subsequent desorption process) is related to the surface area via a formula known as the B. ET. formula. BET Surface Area Analyser Model SAA-2000, specifically designed for BET_Surface Area Analysis.
The Specific Surface Area is expressed in meters square per gram of a sample. It is a measure of area covered by Nitrogen gas adsorbed in a mono-layer form.

Data set [2] can be described thus: Solubility in organic solvents (statement).
A short description of the next data set: Bulk and tapped density. The note with it: Example 5 product.
Data set [3] in a line: Particle size distribution by laser diffraction. The source says: The D10, D50, and D90 values are useful ways for indicating a particle size distribution. D90 is a size value where at least 90 percent of the particles have a size smaller than the stated value. Likewise D10 refers to 10 percent of the particles having a size smaller than the stated value. D50 refers to at least 50 percent of the particles having a size smaller than the stated value and D [4,3] value refers to a mean particle size. Methods for determining D10, D50, D90 and D [4,3] include those using laser light diffraction with equipment sold by Malvern Instruments ltd.
As used herein, “crystalline particles” means any combination of single crystals, aggregates and agglomerates. As used herein “Particle Size Distribution (P.S.D.)” means the cumulative volume size distribution of equivalent spherical diameters as determined by laser diffraction at 1 bar dispersive pressure in a SympatecHelos equipment. “Mean particle size distribution, i.e., d (0.5)” correspondingly, means the median of said particle size distribution.

Counter-ions that a name gives are not always drawn.

`C[C@H](CSC(=O)c1ccccc1)C(=O)N1C[C@@H](Sc2ccccc2)C[C@H]1C(=O)O` [zofenopril calcium, (4S)-N-[3-(Benzoylsulfanyl)-2(S)-methylpropionyl]-4-(phenylsulfanyl)-L-proline calcium salt]: the “Specific surface area by B.E.T” value in data set [1] (Example 5 product) turned out to be 14.13 m^2/g. The “Specific surface area, as measured by B.E.T.” value in data set [1] (crystal particles, description) is given as “about 14.13 m^2/gm”. In data set [2], the “Solubility in organic solvents” value is reported as “insoluble”. Moreover, in the data set “Bulk and tapped density”, the “Bulk density (Tapped)” value was found to be 0.282 gm/ml and the “Bulk density (untapped)” value was found to be 0.201 gm/ml. Further, in data set [3] (Example 5 product), the “Particle size distribution d 10” value came out at 3.902 μ, the “Particle size distribution d 50” value is 12.088 μ and the “Particle size distribution d90” value was determined as 33.858 μ. In data set [3] (crystal particles, description), the “Mean particle size distribution d (0.5)” value was determined as 12.088 μm, the “Particle size distribution d (0.1)” value came out at 3.902 μm and the “Particle size distribution d (0.9)” value worked out at 33.858 μm.
